According to ChEMBL document CHEMBL1139487, “Discovery of corticotropin releasing factor 2 receptor selective sauvagine analogues for treatment of skeletal muscle atrophy” (J Med Chem, 2005):
Square brackets hold non-standard residues; d marks the D form. Peptide text beside a SMILES is read from it. pGlu = O=C1CC[C@@H](C(=O)O)N1

Key:
[1] = biological target: T1, Corticotropin-releasing factor receptor 1 (Mus musculus, UniProt P35347); assay: In vitro effective concentration for mouse corticotropin releasing factor 1 receptor
T1 sequence (P35347 whole entry): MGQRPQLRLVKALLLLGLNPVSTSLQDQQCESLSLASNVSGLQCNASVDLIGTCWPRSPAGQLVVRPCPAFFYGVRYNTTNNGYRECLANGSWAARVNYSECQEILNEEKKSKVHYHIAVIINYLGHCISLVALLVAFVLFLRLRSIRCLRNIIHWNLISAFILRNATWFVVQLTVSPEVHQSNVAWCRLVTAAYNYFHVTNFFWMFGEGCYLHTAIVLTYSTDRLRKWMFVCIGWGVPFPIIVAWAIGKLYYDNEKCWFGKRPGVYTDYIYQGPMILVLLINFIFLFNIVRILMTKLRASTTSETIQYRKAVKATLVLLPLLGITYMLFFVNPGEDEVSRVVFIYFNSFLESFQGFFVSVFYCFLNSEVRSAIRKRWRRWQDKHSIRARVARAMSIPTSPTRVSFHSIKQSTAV

[2] = biological target: Corticotropin-releasing factor receptor 2 (Mus musculus, UniProt Q60748); assay: In vitro effective concentration for mouse corticotropin releasing factor 2 receptor
Sequence of Corticotropin-releasing factor receptor 2 (Q60748 whole entry): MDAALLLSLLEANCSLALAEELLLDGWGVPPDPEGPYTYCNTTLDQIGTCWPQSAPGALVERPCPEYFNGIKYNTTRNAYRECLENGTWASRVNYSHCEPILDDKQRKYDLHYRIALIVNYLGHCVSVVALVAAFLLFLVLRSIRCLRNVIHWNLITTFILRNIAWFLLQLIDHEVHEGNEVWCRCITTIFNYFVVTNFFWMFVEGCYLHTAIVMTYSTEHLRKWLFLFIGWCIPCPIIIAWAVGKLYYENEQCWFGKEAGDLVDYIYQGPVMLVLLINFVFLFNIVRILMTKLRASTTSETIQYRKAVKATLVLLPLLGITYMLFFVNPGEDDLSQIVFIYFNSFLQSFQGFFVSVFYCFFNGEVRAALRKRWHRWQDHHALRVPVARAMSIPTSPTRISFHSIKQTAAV

[3] = biological target: T2, Corticotropin-releasing factor receptor 1 (Mus musculus) (UniProt P35347); assay: In vitro agonistic activity against mouse corticotropin releasing factor 1 receptor; assay type: functional
T2 sequence (whole entry): T1 sequence (P35347 whole entry)

[4] = biological target: Corticotropin-releasing factor receptor 2 (Mus musculus) (UniProt Q60748); assay: In vitro agonistic activity against mouse corticotropin releasing factor 2 receptor; assay type: functional
Sequence of Corticotropin-releasing factor receptor 2 (Mus musculus) (Q60748 whole entry): as above

Mus musculus = species on record: Mus musculus; assay: Selectivity ratio of EC50s for mouse corticotropin releasing factor receptors 1 and 2

EC50 [1] [nM] | EC50 [2] [nM] | Emax [3] [%] | Emax [4] [%] | Selectivity (Mus musculus) | Compound
236 | 8.5 | 100 | 100 | 28 | CC[C@H](C)[C@H](NC(=O)[C@@H](NC(=O)[C@H](CC(=O)O)NC(=O)[C@H](CC(C)C)NC(=O)[C@H](CC(C)C)NC(=O)[C@H](CC(C)C)NC(=O)[C@H](CCCN=C(N)N)NC(=O)[C@H](CC(N)=O)NC(=O)[C@H](CC(N)=O)NC(=O)[C@H](C)NC(=O)[C@H](C)NC(=O)[C@H](CCC(N)=O)NC(=O)[C@H](CCC(N)=O)NC(=O)[C@H](CCCCN)NC(=O)[C@H](CCC(=O)O)NC(=O)[C@H](CCCCN)NC(=O)[C@H](CCC(=O)O)NC(=O)[C@H](CCC(N)=O)NC(=O)[C@H](CCCCN)NC(=O)[C@H](CCC(=O)O)NC(=O)[C@@H](NC(=O)[C@H](CCC(=O)O)NC(=O)[C@@H](NC(=O)[C@H](CCSC)NC(=O)[C@H](CCCCN)NC(=O)[C@H](CCCN=C(N)N)NC(=O)[C@H](CC(C)C)NC(=O)[C@H](CC(C)C)NC(=O)[C@H](Cc1ccccc1)NC(=O)[C@H](CCC(N)=O)NC(=O)[C@@H]1CCCN1C(=O)[C@H](CC(C)C)NC(=O)[C@H](CC(=O)O)NC(=O)[C@@H](NC(=O)[C@H](CO)NC(=O)[C@@H](NC(=O)[C@@H]1CCCN1C(=O)[C@@H]1CCCN1C(=O)CNC(=O)[C@@H]1CCC(=O)N1)[C@@H](C)CC)[C@@H](C)CC)[C@@H](C)CC)[C@@H](C)CC)[C@@H](C)O)C(=O)O
– | – | 100 | 88 | 65 | CC[C@H](C)[C@H](NC(=O)[C@@H](NC(=O)[C@H](CC(=O)O)NC(=O)[C@H](CC(C)C)NC(=O)[C@H](CC(C)C)NC(=O)[C@H](CC(C)C)NC(=O)[C@H](CCCN=C(N)N)NC(=O)[C@H](CC(N)=O)NC(=O)[C@H](CC(N)=O)NC(=O)[C@H](C)NC(=O)[C@H](C)NC(=O)[C@H](CCC(N)=O)NC(=O)[C@H](CCC(N)=O)NC(=O)[C@H](CCCCN)NC(=O)[C@H](CCC(=O)O)NC(=O)[C@H](CCCCN)NC(=O)[C@H](CCC(=O)O)NC(=O)[C@H](CCC(N)=O)NC(=O)[C@H](CCCCN)NC(=O)[C@H](CCC(=O)O)NC(=O)[C@@H](NC(=O)[C@H](CCC(=O)O)NC(=O)[C@@H](NC(=O)[C@H](CCSC)NC(=O)[C@H](CCCCN)NC(=O)[C@H](CCCN=C(N)N)NC(=O)[C@H](CC(C)C)NC(=O)[C@H](CC(C)C)NC(=O)[C@H](CCC(N)=O)NC(=O)[C@H](CC(C)C)NC(=O)[C@@H]1CCCN1C(=O)[C@H](CC(C)C)NC(=O)[C@H](CC(=O)O)NC(=O)[C@@H](NC(=O)[C@H](CO)NC(=O)[C@@H](NC(=O)[C@@H]1CCCN1C(=O)[C@@H]1CCCN1C(=O)CNC(=O)[C@@H]1CCC(=O)N1)[C@@H](C)CC)[C@@H](C)CC)[C@@H](C)CC)[C@@H](C)CC)[C@@H](C)O)C(=O)O
– | – | 81 | 91 | 14 | CC[C@H](C)[C@H](NC(=O)[C@@H](NC(=O)[C@H](CC(=O)O)NC(=O)[C@H](CC(C)C)NC(=O)[C@H](CC(C)C)NC(=O)[C@H](CC(C)C)NC(=O)[C@H](CCCN=C(N)N)NC(=O)[C@H](CC(N)=O)NC(=O)[C@H](CC(N)=O)NC(=O)[C@H](C)NC(=O)[C@H](C)NC(=O)[C@H](CCC(N)=O)NC(=O)[C@H](CCC(N)=O)NC(=O)[C@H](CCCCN)NC(=O)[C@H](CCC(=O)O)NC(=O)[C@H](CCCCN)NC(=O)[C@H](CCC(=O)O)NC(=O)[C@H](CCC(N)=O)NC(=O)[C@H](CCCCN)NC(=O)[C@H](CCC(=O)O)NC(=O)[C@@H](NC(=O)[C@H](CCC(=O)O)NC(=O)[C@@H](NC(=O)[C@H](CCSC)NC(=O)[C@H](CCCCN)NC(=O)[C@H](CCCN=C(N)N)NC(=O)[C@H](CC(C)C)NC(=O)[C@H](CC(C)C)NC(=O)[C@@H](NC(=O)[C@H](Cc1ccccc1)NC(=O)[C@@H]1CCCN1C(=O)[C@H](CC(C)C)NC(=O)[C@H](CC(=O)O)NC(=O)[C@@H](NC(=O)[C@H](CO)NC(=O)[C@@H](NC(=O)[C@@H]1CCCN1C(=O)[C@@H]1CCCN1C(=O)CNC(=O)[C@@H]1CCC(=O)N1)[C@@H](C)CC)[C@@H](C)CC)C(C)C)[C@@H](C)CC)[C@@H](C)CC)[C@@H](C)O)C(=O)O

Continued, compound first:

Compound | EC50 [1] [nM] | EC50 [2] [nM] | Emax [3] [%] | Emax [4] [%] | Selectivity (Mus musculus)
CC[C@H](C)[C@H](NC(=O)[C@@H](NC(=O)[C@H](CC(=O)O)NC(=O)[C@H](CC(C)C)NC(=O)[C@H](CC(C)C)NC(=O)[C@H](CC(C)C)NC(=O)[C@H](CCCN=C(N)N)NC(=O)[C@H](CC(N)=O)NC(=O)[C@H](CC(N)=O)NC(=O)[C@H](C)NC(=O)[C@H](C)NC(=O)[C@H](CCC(N)=O)NC(=O)[C@H](CCC(N)=O)NC(=O)[C@H](CCCCN)NC(=O)[C@H](CCC(=O)O)NC(=O)[C@H](CCCCN)NC(=O)[C@H](CCC(=O)O)NC(=O)[C@H](CCC(N)=O)NC(=O)[C@H](CCCCN)NC(=O)[C@H](CCC(=O)O)NC(=O)[C@@H](NC(=O)[C@H](CCC(=O)O)NC(=O)[C@@H](NC(=O)[C@H](CCSC)NC(=O)[C@H](CCCCN)NC(=O)[C@H](CCCN=C(N)N)NC(=O)[C@H](CC(C)C)NC(=O)[C@H](CC(C)C)NC(=O)[C@H](Cc1c[nH]cn1)NC(=O)[C@H](CC(C)C)NC(=O)[C@@H]1CCCN1C(=O)[C@H](CC(C)C)NC(=O)[C@H](CC(=O)O)NC(=O)[C@@H](NC(=O)[C@H](CO)NC(=O)[C@@H](NC(=O)[C@@H]1CCCN1C(=O)[C@@H]1CCCN1C(=O)CNC(=O)[C@@H]1CCC(=O)N1)[C@@H](C)CC)[C@@H](C)CC)[C@@H](C)CC)[C@@H](C)CC)[C@@H](C)O)C(=O)O | 52.2 | 1.9 | 96 | 81 | 28
CC[C@H](C)[C@H](NC(=O)[C@@H](NC(=O)[C@H](CC(=O)O)NC(=O)[C@H](CC(C)C)NC(=O)[C@H](CC(C)C)NC(=O)[C@H](CC(C)C)NC(=O)[C@H](CCCN=C(N)N)NC(=O)[C@H](CC(N)=O)NC(=O)[C@H](CC(N)=O)NC(=O)[C@H](C)NC(=O)[C@H](C)NC(=O)[C@H](CCC(N)=O)NC(=O)[C@H](CCC(N)=O)NC(=O)[C@H](CCCCN)NC(=O)[C@H](CCC(=O)O)NC(=O)[C@H](CCCCN)NC(=O)[C@H](CCC(=O)O)NC(=O)[C@H](CCC(N)=O)NC(=O)[C@H](CCCCN)NC(=O)[C@H](CCC(=O)O)NC(=O)[C@@H](NC(=O)[C@H](CCC(=O)O)NC(=O)[C@@H](NC(=O)[C@H](CCSC)NC(=O)[C@H](CCCCN)NC(=O)[C@H](CCCN=C(N)N)NC(=O)[C@H](CC(C)C)NC(=O)[C@H](CC(C)C)NC(=O)[C@H](Cc1c[nH]c2ccccc12)NC(=O)[C@H](Cc1c[nH]cn1)NC(=O)[C@@H]1CCCN1C(=O)[C@H](CC(C)C)NC(=O)[C@H](CC(=O)O)NC(=O)[C@@H](NC(=O)[C@H](CO)NC(=O)[C@@H](NC(=O)[C@@H]1CCCN1C(=O)[C@@H]1CCCN1C(=O)CNC(=O)[C@@H]1CCC(=O)N1)[C@@H](C)CC)[C@@H](C)CC)[C@@H](C)CC)[C@@H](C)CC)[C@@H](C)O)C(=O)O | 408 | 25.1 | 100 | 100 | 16
CC[C@H](C)[C@H](NC(=O)[C@@H](NC(=O)[C@H](CC(=O)O)NC(=O)[C@H](CC(C)C)NC(=O)[C@H](CC(C)C)NC(=O)[C@H](CC(C)C)NC(=O)[C@H](CCCN=C(N)N)NC(=O)[C@H](CC(N)=O)NC(=O)[C@H](CC(N)=O)NC(=O)[C@H](C)NC(=O)[C@H](C)NC(=O)[C@H](CCC(N)=O)NC(=O)[C@H](CCC(N)=O)NC(=O)[C@H](CCCCN)NC(=O)[C@H](CCC(=O)O)NC(=O)[C@H](CCCCN)NC(=O)[C@H](CCC(=O)O)NC(=O)[C@H](CCC(N)=O)NC(=O)[C@H](CCCCN)NC(=O)[C@H](CCC(=O)O)NC(=O)[C@@H](NC(=O)[C@H](CCC(=O)O)NC(=O)[C@@H](NC(=O)[C@H](CCSC)NC(=O)[C@H](CCCCN)NC(=O)[C@H](CCCN=C(N)N)NC(=O)[C@H](CC(C)C)NC(=O)[C@H](CC(C)C)NC(=O)[C@H](Cc1c[nH]c2ccccc12)NC(=O)[C@H](Cc1ccc(O)cc1)NC(=O)[C@@H]1CCCN1C(=O)[C@H](CC(C)C)NC(=O)[C@H](CC(=O)O)NC(=O)[C@@H](NC(=O)[C@H](CO)NC(=O)[C@@H](NC(=O)[C@@H]1CCCN1C(=O)[C@@H]1CCCN1C(=O)CNC(=O)[C@@H]1CCC(=O)N1)[C@@H](C)CC)[C@@H](C)CC)[C@@H](C)CC)[C@@H](C)CC)[C@@H](C)O)C(=O)O | 187 | 4 | 100 | 100 | 47
CC[C@H](C)[C@H](NC(=O)[C@@H](NC(=O)[C@H](CC(=O)O)NC(=O)[C@H](CC(C)C)NC(=O)[C@H](CC(C)C)NC(=O)[C@H](CC(C)C)NC(=O)[C@H](CCCN=C(N)N)NC(=O)[C@H](CC(N)=O)NC(=O)[C@H](CC(N)=O)NC(=O)[C@H](C)NC(=O)[C@H](C)NC(=O)[C@H](CCC(N)=O)NC(=O)[C@H](CCC(N)=O)NC(=O)[C@H](CCCCN)NC(=O)[C@H](CCC(=O)O)NC(=O)[C@H](CCCCN)NC(=O)[C@H](CCC(=O)O)NC(=O)[C@H](CCC(N)=O)NC(=O)[C@H](CCCCN)NC(=O)[C@H](CCC(=O)O)NC(=O)[C@@H](NC(=O)[C@H](CCC(=O)O)NC(=O)[C@@H](NC(=O)[C@H](CCSC)NC(=O)[C@H](CCCCN)NC(=O)[C@H](CCCN=C(N)N)NC(=O)[C@H](CC(C)C)NC(=O)[C@H](CC(C)C)NC(=O)CNC(=O)[C@H](CC(C)C)NC(=O)[C@@H]1CCCN1C(=O)[C@H](CC(C)C)NC(=O)[C@H](CC(=O)O)NC(=O)[C@@H](NC(=O)[C@H](CO)NC(=O)[C@@H](NC(=O)[C@@H]1CCCN1C(=O)[C@@H]1CCCN1C(=O)CNC(=O)[C@@H]1CCC(=O)N1)[C@@H](C)CC)[C@@H](C)CC)[C@@H](C)CC)[C@@H](C)CC)[C@@H](C)O)C(=O)O ([pGlu]GPPISIDLPLGLLRKMIEIEKQEKEKQQAANNRLLLDTI-OH) | – | – | 99 | 82 | 14
